Like-named read-outs stand apart in the source and are kept apart here.
What was measured:
[1] = system: genotype A, "Long" strain RSV; assay: RSV-A assay (CPE protection in Hep-2 cells, ATPlite readout); assay type: cell-based, Human respiratory syncytial virus (HRSV); conditions: genotype A “Long” strain RSV, MOI 0.1, CPE protection, read-out: Human RSV-A (“Long”)
How it was run: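 Hep-2 cells (8,000/well) infected with RSV Long strain at MOI 0.1 in the presence of 2-fold compound dilutions in duplicate. After 5 days, cell viability measured by ATPlite luminescence, normalized between virus-only and uninfected cell controls; EC50 reported.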

[2] = system: HMPV clinical isolate TN/1501/A1; assay: HMPV antiviral assay Method-B (clinical isolate TN/1501/A1 in LLC-MK2 cells, ATP-Lite readout); assay type: cell-based, Human metapneumovirus (HMPV); conditions: human metapneumovirus, LLC-MK2, 144 h, hMPV WT1501 (clinical isolate TN/1501/A1), 6 days
How it was run: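 LLC-MK2 cells infected in suspension with TN/1501/A1 at MOI 0.014 in serum-free medium with 2 μg/mL TPCK-trypsin (final), incubated 6 days at 37° C. Compounds tested in duplicate, 10-point 3-fold dilutions from 10 μM. Cell health read by ATP-Lite luminescence, normalised to virus-only and cells-only controls; EC50 by four-parameter logistic fit.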

[3] = human respiratory syncytial virus

Row | SMILES | EC50 [1, 3] [µM] | EC50 [2] [µM] | EC50 [1] [µM]
1 | C[C@]1(C(N)=O)COc2c1cc([C@@](O)(CNC(=O)c1cc(OC3CC3)c3nn(C(F)F)cc3c1)C1CC1)nc2-c1ccc(F)c(Cl)c1F [Example 568] | < 0.2 | < 0.5 | 
2 | C[C@]1(C(N)=O)COc2c1cc([C@@](O)(CNC(=O)c1cc(OC3CC3)c3nn(C(F)F)cc3c1)C(F)(F)F)nc2-c1ccc2c(c1)OC(F)(F)O2 [Example 569] | < 0.2 | < 0.5 | 
3 | C[C@]1(C(N)=O)COc2c1cc([C@@](O)(CNC(=O)c1cc(Cl)c3nn(C(F)F)cc3c1)C1CC1)nc2-c1ccc(F)c(Cl)c1F [Example 570] | < 0.2 | < 0.5 | 
4 | C[C@]1(C(N)=O)COc2c1cc([C@@](O)(CNC(=O)c1cc(F)c3nn(C(F)F)cc3c1)C1CC1)nc2-c1ccc(F)c(Cl)c1F [Example 571] | < 0.2 | < 0.5 | 
5 | COc1cc(C(=O)NC[C@](O)(c2cc3c(c(-c4ccc(F)c(Cl)c4F)n2)OC[C@]3(C)C(N)=O)C2CC2)cc2cc(C(F)(F)F)cnc12 [Example 572] | < 0.2 | < 0.5 | 
6 | CC[C@]1(C(N)=O)COc2c1cc([C@@](O)(CNC(=O)c1cc(OC)c3nn(C4CC4)cc3c1)C(F)(F)F)nc2-c1ccc(F)cc1 [Example 573] |  | < 0.5 | < 0.2
7 | COc1cc(C(=O)NC[C@](O)(c2cc3c(c(-c4ccc(F)c(Cl)c4)n2)OC[C@]3(C)C(N)=O)C2CC2)cc2cn(C(F)F)nc12 [Example 574] | < 0.2 | < 0.5 | 
8 | COc1cc(C(=O)NC[C@](O)(c2cc3c(c(-c4ccc(F)c(Cl)c4)n2)OC[C@]3(C)C(N)=O)C2CC2)cc2cn(C3CC3)nc12 [Example 575] | < 0.2 | < 0.5 | 
9 | COc1cc(C(=O)NC[C@](O)(c2cc3c(c(-c4ccc(C#N)c(Cl)c4)n2)OC[C@]3(C)C(N)=O)C(F)(F)F)cc2cn(C(F)F)nc12 [Example 576] | < 0.2 | > 0.5 | 
10 | COc1cc(C(=O)NC[C@](O)(c2cc3c(c(-c4ccc(C#N)c(Cl)c4)n2)OC[C@]3(C)C(N)=O)C(F)(F)F)cc2cc(Cl)c(C)nc12 [Example 578] | < 0.2 | > 0.5 | 
11 | COc1cc(C(=O)NC[C@](O)(c2cc3c(c(-c4ccc(C(F)(F)F)c(Cl)c4)n2)OC[C@]3(C)C(N)=O)C(F)(F)F)cc2cn(C3CC3)nc12 [Example 579] | < 0.2 | > 0.5 | 
12 | COc1cc(C(=O)NC[C@](O)(c2cc3c(c(-c4ccc(C(F)(F)F)c(Cl)c4)n2)OC[C@]3(C)C(N)=O)C(F)(F)F)cc2cn(C(F)F)nc12 [Example 580] | < 0.2 | > 0.5 | 
13 | COc1cc(C(=O)NC[C@](O)(c2cc3c(c(-c4ccc(C(F)(F)F)c(Cl)c4)n2)OC[C@]3(C)C(N)=O)C(F)(F)F)cc2cc(Cl)c(C)nc12 [Example 581] | < 0.2 | > 0.5 | 
14 | COc1cc(C(=O)NC[C@](O)(c2cc3c(c(-c4cnc(C#N)c(Cl)c4)n2)OC[C@]3(C)C(N)=O)C(F)(F)F)cc2cn(C(F)F)nc12 [Example 582] | < 0.2 | > 0.5 | 
15 | COc1cc(C(=O)NC[C@](O)(c2cc3c(c(-c4cnc(C#N)c(Cl)c4)n2)OC[C@]3(C)C(N)=O)C(F)(F)F)cc2cn(C3CC3)nc12 [Example 583] | < 0.2 | > 0.5 | 
16 | COc1cc(C(=O)NC[C@](O)(c2cc3c(c(-c4ccc(Cl)cc4)n2)OC[C@]3(C)C(N)=O)C(F)(F)F)cc2cn(C3CC3)nc12 [Example 585] | < 0.2 | > 0.5 | 
17 | COc1cc(C(=O)NC[C@](O)(c2cc3c(c(-c4ccc(Cl)cc4)n2)OC[C@]3(C)C(N)=O)C(F)(F)F)cc2cn(C(F)F)nc12 [Example 586] | < 0.2 | > 0.5 | 
18 | COc1cc(C(=O)NC[C@](O)(c2cc3c(c(-c4cnc(Cl)c(Cl)c4)n2)OC[C@]3(C)C(N)=O)C(F)(F)F)cc2cn(C3CC3)nc12 [Example 587] | < 0.2 | > 0.5 | 
19 | COc1cc(C(=O)NC[C@](O)(c2cc3c(c(-c4cnc(Cl)c(Cl)c4)n2)OC[C@]3(C)C(N)=O)C(F)(F)F)cc2cc(Cl)c(C)nc12 [Example 588] | < 0.2 | > 0.5 | 
20 | COc1cc(C(=O)NC[C@](O)(c2cc3c(c(-c4cnc(Cl)c(Cl)c4)n2)OC[C@]3(C)C(N)=O)C(F)(F)F)cc2cn(C(F)F)nc12 [Example 589] | < 0.2 | > 0.5 | 
21 | C[C@]1(C(N)=O)COc2c1cc([C@@](O)(CNC(=O)c1cc(O)c3nn(C4CC4)cc3c1)C(F)(F)F)nc2-c1ccc(F)cc1 [Example 590] | < 0.2 | > 0.5 | 
22 | COc1cc(C(=O)NC[C@](O)(c2cc3c(c(-c4ccc5c(c4)OC(F)(F)O5)n2)OC[C@]3(C)C(N)=O)C(F)(F)F)cc2cn(C(F)F)nc12 [Example 591] | < 0.2 | < 0.5 | 
23 | C[C@]1(C(N)=O)COc2c1cc([C@@](O)(CNC(=O)c1ccn3nc(C4CC4)cc3c1)C(F)(F)F)nc2-c1ccc2c(c1)OC(F)(F)O2 [Example 592] | < 0.2 | < 0.5 | 
24 | COc1cc(C(=O)NC[C@](O)(c2cc3c(c(-c4csc5c(F)cccc45)n2)OC[C@]3(C)C(N)=O)C2CC2)cc2cn(C3CC3)nc12 [Example 593] | < 0.2 | < 0.5 | 
25 | COc1cc(C(=O)NC[C@](O)(c2cc3c(c(-c4csc5c(F)cccc45)n2)OC[C@]3(C)C(N)=O)C2CC2)cc2cn(C(F)F)nc12 [Example 594] | < 0.2 | < 0.5 | 
26 | COc1cc(C(=O)NC[C@](O)(c2cc3c(c(-c4csc5c(F)cccc45)n2)OC[C@]3(C)C(N)=O)C2CC2)cc2cc(Cl)c(C)nc12 [Example 595] | < 0.2 | < 0.5 | 

More lines, now with the values ahead:

Row | EC50 [1, 3] [µM] | EC50 [2] [µM] | EC50 [1] [µM] | SMILES
27 | < 0.2 | < 0.5 |  | C[C@]1(C(N)=O)COc2c1cc([C@@](O)(CNC(=O)c1cc(F)c3nc(C4CC4)cn3c1)C1CC1)nc2-c1ccc2c(c1)OC(F)(F)O2 [Example 549]
28 | < 0.2 | < 0.5 |  | COc1cc(C(=O)NC[C@](O)(c2cc3c(c(-c4ccc(F)c(Cl)c4F)n2)OC[C@]3(C)C(N)=O)C(F)(F)F)cc2cn(C3(F)CC3)nc12 [Example 550]
29 | < 0.2 | < 0.5 |  | COc1cc(C(=O)NC[C@](O)(c2cc3c(c(-c4ccc(F)c(Cl)c4F)n2)OC[C@]3(C)C(N)=O)C(F)(F)F)cc2cn(C(F)F)nc12 [Example 551]
30 | < 0.2 | < 0.5 |  | COc1cc(C(=O)NC[C@](O)(c2cc3c(c(-c4ccc(F)c(Cl)c4F)n2)OC[C@]3(C)C(N)=O)C(F)(F)F)cc2cc(Cl)c(C)nc12 [Example 552]
31 | < 0.2 | < 0.5 |  | Cc1cnc2c(OC(F)F)cc(C(=O)NC[C@](O)(c3cc4c(c(-c5ccc(F)c(Cl)c5F)n3)OC[C@]4(C)C(N)=O)C(F)(F)F)cc2c1 [Example 553]
32 | < 0.2 | < 0.5 |  | COc1cc(C(=O)NC[C@](O)(c2cc3c(c(-c4ccc(F)c(Cl)c4F)n2)OC[C@]3(C)C(N)=O)C2CC2)cc2cn(C3CC3)nc12 [Example 554]
33 | < 0.2 | < 0.5 |  | COc1cc(C(=O)NC[C@](O)(c2cc3c(c(-c4ccc(F)c(Cl)c4F)n2)OC[C@]3(C)C(N)=O)C2CC2)cc2cn(C3(F)CC3)nc12 [Example 555]
34 | < 0.2 | < 0.5 |  | COc1cc(C(=O)NC[C@](O)(c2cc3c(c(-c4ccc(F)c(Cl)c4F)n2)OC[C@]3(C)C(N)=O)C2CC2)cc2cn(C(F)F)nc12 [Example 556]
35 | < 0.2 | < 0.5 |  | COc1cc(C(=O)NC[C@](O)(c2cc3c(c(-c4ccc(F)c(Cl)c4F)n2)OC[C@]3(C)C(N)=O)C2CC2)cc2cc(Cl)c(C)nc12 [Example 557]
36 | < 0.2 | < 0.5 |  | Cc1cnc2c(OC(F)F)cc(C(=O)NC[C@](O)(c3cc4c(c(-c5ccc(F)c(Cl)c5F)n3)OC[C@]4(C)C(N)=O)C3CC3)cc2c1 [Example 558]
37 | < 0.2 | < 0.5 |  | C[C@]1(C(N)=O)COc2c1cc([C@@](O)(CNC(=O)c1cc(Cl)c3nn(C4CC4)cc3c1)C1CC1)nc2-c1ccc(F)c(Cl)c1F [Example 559]
38 | < 0.2 | < 0.5 |  | C[C@]1(C(N)=O)COc2c1cc([C@@](O)(CNC(=O)c1cc(OC3CC3)c3nc(C4CC4)cn3c1)C1CC1)nc2-c1ccc(F)c(Cl)c1F [Example 560]
39 | < 0.2 | < 0.5 |  | COc1cc(C(=O)NC[C@](O)(c2cc3c(c(-c4ccc(F)c(Cl)c4F)n2)OC[C@]3(C)C(N)=O)C2CC2)cc2cc(Br)cnc12 [Example 561]
40 | < 0.2 | < 0.5 |  | COc1cc(C(=O)NC[C@](O)(c2cc3c(c(-c4ccc(F)c(F)c4Cl)n2)OC[C@]3(C)C(N)=O)C2CC2)cc2cn(C3(F)CC3)nc12 [Example 562]
41 | < 0.2 | < 0.5 |  | COc1cc(C(=O)NC[C@](O)(c2cc3c(c(-c4ccc(F)c(F)c4Cl)n2)OC[C@]3(C)C(N)=O)C2CC2)cc2cn(C(F)F)nc12 [Example 563]
42 | < 0.2 | < 0.5 |  | C[C@]1(C(N)=O)COc2c1cc([C@@](O)(CNC(=O)c1cc(Cl)c3nn(C4CC4)cc3c1)C1CC1)nc2-c1ccc(F)c(F)c1Cl [Example 564]
43 | < 0.2 | < 0.5 |  | COc1cc(C(=O)NC[C@](O)(c2cc3c(c(-c4ccc(F)c(F)c4Cl)n2)OC[C@]3(C)C(N)=O)C2CC2)cc2cc(Cl)c(C)nc12 [Example 565]
44 | < 0.2 | < 0.5 |  | Cc1cnc2c(OC(F)F)cc(C(=O)NC[C@](O)(c3cc4c(c(-c5ccc(F)c(F)c5Cl)n3)OC[C@]4(C)C(N)=O)C3CC3)cc2c1 [Example 566]
45 | < 0.2 | < 0.5 |  | C[C@]1(C(N)=O)COc2c1cc([C@@](O)(CNC(=O)c1cc(OC3CC3)c3nn(C(F)F)cc3c1)C(F)(F)F)nc2-c1ccc(F)c(Cl)c1F [Example 567]

— patent publication US12612412B2, “Antiviral heterocyclic compounds” (Enanta Pharmaceuticals, Inc., priority 2021, dated 2026)
